Data from ChEMBL document CHEMBL1148034, “On the structures of crambescins B and C1” (J Nat Prod, 1993).
Converted amounts (≈) assume the structure as drawn.

System: L1210
Assay: Cytotoxicity against mouse L1210 cells after 72 hrs
Type: functional, cell-based
Conditions: L1210, 72 h

SMILES: CCCCCCCCC[C@H]1NC(N)=N[C@@]2(CCCO2)[C@H]1C(=O)OCCCCCCCNC(=N)N [CRAMBESCIN B]
- IC50: 1 µg/mL (≈ 2.08 µM)
